Assay results from patent US12239629B2 (priority 2020, dated 2025).
Values after ≈ are worked out from the molar mass of the structure shown. Counter-ions that a name gives are not always drawn. Like-named read-outs stand apart in the source and are kept apart here.

Legend:
SARS-CoV2 [1] = experiment: In-vitro experiments, time of drug addition relative to infection; format: cell-based; settings: added between 3 hours pre-infection and 3 hours after infection
Description: Less inhibition was detected when the drug was added after 12 hours post-infection (Our observation was consistent with the report by Agostini et al regarding GS-5734 (remdesivir) (Agostini M L, Andres E L, Sims A C, Graham R L, Sheahan T P, Lu X, Smith E C, Case J B, Feng J Y, Jordan R, Ray AS, Cihlar T, Siegel D, Mackman R L, Clarke M O, Baric R S, Denison M R. 2018. Coronavirus susceptibility to the antiviral remdesivir (GS-5734) is mediated by the viral polymerase and the proofreading exoribonuclease. mBio 9:e00221-18. https://doi.org/10.1128/mBio.00221-18.).
(§1) In carrying out the in vitro experiments, vero E6 cells (an African green monkey kidney cell line) were infected with SARS-CoV2 at a multiplicity of infection of 0.5 for 1 hour. The cells were washed with PBS and then incubated in OPTI-MEM (Invitrogen) medium with or without various concentrations of the following drug candidates: Artemether (from BiopharmaRx) Hydroxychloroquine (from Sigma Aldrich), Atazanavir (from Sigma Aldrich), and Efavirenz (from Sigma Aldrich), Fosamprenavir Calcium (from Sigma Aldrich), Saquinavir (from Sigma Aldrich) and Remdesivir (from AOBIOUS, INC., USA)

[2] = Peak Inhibitory Concentration (Threshold) after oral administration
Description: It is noted that the Peak Inhibitory Concentration (Threshold) of Artemether and Remdesivir were at 120 minutes after oral administration. The Peak Inhibitory Concentration (Threshold) of Lumefantrine was at 60 minutes after oral administration.

[3] = cited from earlier work
SARS-CoV2 [4] = experiment: Drug pretreatment of Vero E6 cells prior to SARS-CoV2 infection, indirect immunofluorescence; format: cell-based
Description: as §1
(§2) Immunofluorescence staining was performed with SARS-CoV2-specific hyperimmune mouse ascitic fluid (HMAF) followed by anti-mouse fluorescein-coupled antibody.
Experiments were carried out to determine the impact of artemether treatment on SARS-CoV2 infection. Permissive Vero E6 cells were pre-treated with various concentrations of artemether (0.1-50 μM) for 18-24 hours prior to virus infection. Cells were then infected with SARS-CoV2, and virus antigens were visualized by indirect immunofluorescence. For quantitative purposes, we counted the number of cells stained positive from three random locations on a slide. The average number of positively stained control cells was scored as 100% and was compared with the number of positive cells observed under various artemether concentrations. Pretreatment with 0.1, 1, 10, 20, 30, 40 and 50 μM artemether reduced infectivity by 4%, 12%, 32%, 45%, 63%, 92% and 100% respectively. Reproducible results were obtained from three independent experiments.

SARS-CoV2 [5] = experiment: Drug added to Vero E6 cells immediately after SARS-CoV2 adsorption, indirect immunofluorescence after 24 hours; format: cell-based; settings: for inhibition: added after the initiation of infection
Description: as §1, §2
The antiviral properties of artemether on SARS-CoV2 after the initiation of infection were studied. Vero E6 cells were infected with the virus and fresh medium supplemented with various concentrations of artemether was added immediately after virus adsorption. Infected cells were incubated for an additional 24 hours, after which the presence of virus antigens was analyzed by indirect immunofluorescence analysis. When artemether was added after the initiation of infection, there was a dramatic dose dependent decrease in the number of virus antigen-positive cells. […] A half-maximal inhibitory effect was estimated to occur at 16.5±1.0 μM artemether. […] (FIG. 2).

[6] = Dissolution test of Artemether/Lumefantrine-Remdesivir soft gel capsule; format: physicochemical; settings: 0.1 N. HCl with 3% Benzalkonium Chloride
Source text: The soft gel capsule of Artemether and Lumefantrine is comprised: Artemether 4 to 5% w/w, Lumefantrine 20-24% w/w, Remdesivir 18-20%, non-aqueous vehicle 15-20% w/w, preservative less than 1% w/w, viscosity imparting agent 15-20% w/w, suspending agent 1 to 5% w/w and emulsifying agent 1 to 3% w/w and a process to manufacture the said preparation comprising of the following steps as given in the above Patent. • (a) Preservatives and Solid Suspending Agents were milled and sifted. • (b) Non-aqueous vehicle, viscosity imparting agent and liquid suspending agents were filtered to remove the foreign particles • (c) Additional steps for mixing preservatives and suspending agents: • (i) Preservatives were dissolved in non-aqueous vehicle; • (ii) Emulsifying agents were warmed and/or melted and added into mixture in (i) above; • (iii) Viscosity imparting agent is added to mixture of (ii) above and the resultant mixture is stirred. • (iv) Suspending agent is added and mixed with the mixture in (iii) above; and • (v) The mixture of (a) above and (c) (iv) above was homogenized. • (d) The mixture in (v) above was the encapsulated in soft gelatin.
Drug dissolution testing is routinely used to provide critical in vitro drug release information for both quality control purposes to predict in vivo drug release profiles.
The media for dissolution test was 0.1 N. HCl with 3% Benzalkonium Chloride.

severe COVID-19 = settings: cited from earlier work
COVID-19 = settings: preliminary results, cited from earlier work
[7] = pretreatment 18-24 hours prior to virus infection, 0.1 μM
[8] = pretreatment 18-24 hours prior to virus infection, 1 μM
[9] = pretreatment 18-24 hours prior to virus infection, 10 μM
[10] = pretreatment 18-24 hours prior to virus infection, 20 μM
[11] = pretreatment prior to virus infection, 5 μM
[12] = pretreatment prior to virus infection, 15 μM
[13] = pretreatment prior to virus infection, 25 μM
[14] = Severe acute respiratory syndrome coronavirus 2, Vero C1008, drug added after the initiation of infection, Vero E6 cells, read-out: concentration that reduced the infection by 50%
[15] = Severe acute respiratory syndrome coronavirus 2, Vero C1008, drug added immediately after virus adsorption, Vero E6 cells, estimated, read-out: half-maximal inhibitory effect
[16] = Severe acute respiratory syndrome coronavirus 2, Vero C1008, read-out: half-maximal inhibitory effect, drug added immediately after virus adsorption, Vero E6 cells, estimated
[17] = pretreatment 18-24 hours prior to virus infection, 30 μM
[18] = pretreatment 18-24 hours prior to virus infection, 40 μM
[19] = pretreatment 18-24 hours prior to virus infection, 50 μM

Row | SMILES | reduced infectivity (SARS-CoV2 [4]; [7]) [%] | reduced infectivity (SARS-CoV2 [4]; [8]) [%] | reduced infectivity (SARS-CoV2 [4]; [9]) [%] | reduced infectivity (SARS-CoV2 [4]; [10]) [%] | IC50 (SARS-CoV2 [5]; [14]) [µM] | IC50 (SARS-CoV2 [5]; [15]) [µM] | IC50 (SARS-CoV2 [5]; [16]) [µM] | reduced infectivity (SARS-CoV2 [4]; [17]) [%] | reduced infectivity (SARS-CoV2 [4]; [18]) [%] | reduced infectivity (SARS-CoV2 [4]; [19]) [%] | also measured
1 | COC(=O)NC(C(=O)NN(Cc1ccc(-c2ccccn2)cc1)C[C@H](O)[C@H](Cc1ccccc1)NC(=O)[C@@H](NC(=O)OC)C(C)(C)C)C(C)(C)C (stereo partly drawn) [Atazanavir, methyl N-[(1S)-1-{N′-[(2S,3S)-2-hydroxy-3-[(2S)-2-[(methoxycarbonyl)amino]-3,3-dimethylbutanamido]-4-phenylbutyl]-N′-{[4-(pyridin-yl)phenyl]methyl} hydrazinecarbonyl}-2.2-dimethylpropyl]carbamate] |  |  |  |  |  |  |  |  |  |  | inhibition by time of addition (SARS-CoV2 [1]): maximal inhibition
2 | CCCCN(CCCC)CC(O)c1cc(Cl)cc2c1-c1ccc(Cl)cc1/C2=C/c1ccc(Cl)cc1 (centres unmarked) [Lumefantrine] |  |  |  |  |  |  |  |  |  |  | time of Peak Inhibitory Concentration (Threshold) [2]: 60 min; solubility in water (words) [3]: insoluble
3 | CCC(CC)COC(=O)[C@H](C)N[P@](=O)(OC[C@H]1O[C@@](C#N)(c2ccc3c(N)ncnn23)[C@H](O)[C@@H]1O)Oc1ccccc1 [Remdesivir, 2-ethylbutyl (2S)-2-[[[(2R,3S,4R,5R)-5-(4-aminopyrrolo[2,1-f][1,2,4]triazin-7-yl)-5-cyano-3,4-dihydroxyoxolan-2-yl]methoxy-phenoxyphosphoryl]amino]propanoate] | 7 | 21 | 63 | 96 | ~2.4 | 2.4 ± 1 |  |  |  |  | reduced infectivity (SARS-CoV2 [4]; [11]): 42%; reduced infectivity (SARS-CoV2 [4]; [12]): 84%; reduced infectivity (SARS-CoV2 [4]; [13]): 100%; inhibition (SARS-CoV2 [5]; 5-50 μM concentrations): 68%-96%; % Cumulative Drug Release ([6]; 60 minute time frame): 91.7%; % of Drug Release in a Dissolution Test ([6]; sample time 30 minute): 52.6%; % of Drug Release in a Dissolution Test ([6]; sample time 60 minute): 73.4%; % of Drug Release in a Dissolution Test ([6]; sample time 90 minute): 85.8%; % of Drug Release in a Dissolution Test ([6]; sample time 120 minute): 92.6%; time of Peak Inhibitory Concentration (Threshold) [2]: 120 min; stopped early because of adverse events (severe COVID-19; adult patients admitted to hospital for severe COVID-19, 237 enrolled): 18 patients; clinical benefits (severe COVID-19; adult patients admitted to hospital for severe COVID-19): not associated with statistically significant clinical benefits; stopped early because of adverse events (severe COVID-19; share of patients, adult patients with severe COVID-19): 12%; faster time to recovery than placebo (COVID-19; 1063 patients, p<0.001): 31%; median time to recovery (COVID-19; 1063 patients): 11 days; mortality rate (COVID-19; p=0.059 vs placebo): 8.0%; solubility in water [3]: 0.33 mg/mL (≈ 548 µM); solubility in water (words) [3]: sparingly soluble
4 | COC(=O)N[C@H](C(=O)N[C@@H](Cc1ccccc1)[C@@H](O)CN(Cc1ccc(-c2ccccn2)cc1)NC(=O)[C@@H](NC(=O)OC)C(C)(C)C)C(C)(C)C [atazanavir sulfate] | 5 | 15 | 46 | 92 | ~11 | 11.5 ± 1 |  |  |  |  | reduced infectivity (SARS-CoV2 [4]; [11]): 28%; reduced infectivity (SARS-CoV2 [4]; [12]): 78%; reduced infectivity (SARS-CoV2 [4]; [13]): 100%; inhibition (SARS-CoV2 [5]; 40-100 μM concentrations): 86%-96%
5 | C[C@H]1O[C@@H](O[C@H]2[C@@H](O)C[C@H](O[C@H]3[C@@H](O)C[C@H](O[C@H]4CC[C@@]5(C)[C@H](CC[C@@H]6[C@@H]5C[C@@H](O)[C@]5(C)[C@@H](C7=CC(=O)OC7)CC[C@]65O)C4)O[C@@H]3C)O[C@@H]2C)C[C@H](O)[C@@H]1O [digoxin, 3-[(3S,5R,8R,9S, 10S, 12R, 13S, 14S, 17R)-3-[(2R,4S,5S,6R)-5-[(2S,4S,5S,6R)-5-[(2S,4S,5S,6R)-4,5-dihydroxy-6-methyloxan-2-yl]oxy-4-hydroxy-6-methyloxan-2-yl]oxy-4-hydroxy-6-methyloxan-2-yl]oxy-12,14-dihydroxy-10, 13-dimethyl-1,2,3,4,5,6,7,8,9, 11, 12, 15, 16, 17-tetradecahydrocyclopenta[a]phenanthren-17-yl]-2H-furan-5-one] |  |  |  |  | ~0.17 |  | 0.17 ± 0.05 |  |  |  | inhibition (SARS-CoV2 [5]; 0.20-0.50 μM concentrations): 73%-97%
6 | O=C1Nc2ccc(Cl)cc2[C@@](C#CC2CC2)(C(F)(F)F)O1 [efavirenz, Efavirenz] | 3 | 9 | 25 | 48 |  |  | 51 ± 1 | 73 | 89 | 100 | inhibition (SARS-CoV2 [5]; 80-200 μM concentrations): 73%-96%; IC50 (SARS-CoV2 [5]; Severe acute respiratory syndrome coronavirus 2, Vero C1008, read-out: concentration that reduced the infection by 50%, drug added after the initiation of infection, Vero E6 cells): ~55 µM
7 | CC(C)CN(C[C@H](OP(=O)(O)O)[C@H](Cc1ccccc1)NC(=O)O[C@H]1CCOC1)S(=O)(=O)c1ccc(N)cc1 [fosamprenavir calcium, Fosamprenavir Calcium] | 3 | 10 | 28 | 55 | ~58 | 58 ± 1 |  | 73 | 91 | 100 | inhibition (SARS-CoV2 [5]; 80-200 μM concentrations): 75%-96%; IC50 (SARS-CoV2 [5]; read-out: concentration that reduced the infection by 50%, drug added after the initiation of infection, Vero E6 cells): ~95 µM
8 | CCN(CCO)CCCC(C)Nc1ccnc2cc(Cl)ccc12 (centres unmarked) [hydroxychloroquine sulfate] | 6 | 18 | 47 | 63 |  | 7.5 ± 1 |  | 81 | 92 | 100 | inhibition (SARS-CoV2 [5]; 40-100 μM concentrations): 75-96%; reduced the infection (SARS-CoV2 [5]; approximately 10 μM added immediately after virus adsorption, 24 hours): 63%
9 | CC(C)(C)NC(=O)[C@@H]1C[C@@H]2CCCC[C@@H]2CN1C[C@@H](O)[C@H](Cc1ccccc1)NC(=O)[C@H](CC(N)=O)NC(=O)c1ccc2ccccc2n1 [saquinavir, Saquinavir] |  | 5 | 16 | 35 |  |  | 96 ± 1 |  | 47 |  | reduced infectivity (SARS-CoV2 [4]; pretreatment 18-24 hours prior to virus infection, 60 μM): 78%; reduced infectivity (SARS-CoV2 [4]; pretreatment 18-24 hours prior to virus infection, 80 μM): 85%; reduced infectivity (SARS-CoV2 [4]; pretreatment 18-24 hours prior to virus infection, 100 μM): 100%; inhibition (SARS-CoV2 [5]; 120-240 μM concentrations): 63%-96%
